Measured values: patent US12187709B2 (Genentech, Inc., priority 2021, dated 2025)

Experiments:
c-Cbl = c-Cbl (Homo sapiens (Human), UniProt P22681); assay: C-Cbl LCK Ub TR-FRET assay (C-cbl Lck HTRF); type: biochemical
How it was run: (§1)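 After the ubiquitination reaction, detection mixture was added and plates incubated 20 min at room temperature before reading. IC50 values were calculated with wells lacking LCK as the low control and DMSO as the high control.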

[1] = target: Human Cbl-b (residues 40-426) (Homo sapiens (Human), UniProt Q13191); assay: Cbl-b SPR assay; type: binding; conditions: for Fold of selectivity: C-cbl SPR Kd vs Cbl-b SPR Kd; for Kd: SPR, 20° C.
Human Cbl-b (residues 40-426), sequence (Q13191 40-426): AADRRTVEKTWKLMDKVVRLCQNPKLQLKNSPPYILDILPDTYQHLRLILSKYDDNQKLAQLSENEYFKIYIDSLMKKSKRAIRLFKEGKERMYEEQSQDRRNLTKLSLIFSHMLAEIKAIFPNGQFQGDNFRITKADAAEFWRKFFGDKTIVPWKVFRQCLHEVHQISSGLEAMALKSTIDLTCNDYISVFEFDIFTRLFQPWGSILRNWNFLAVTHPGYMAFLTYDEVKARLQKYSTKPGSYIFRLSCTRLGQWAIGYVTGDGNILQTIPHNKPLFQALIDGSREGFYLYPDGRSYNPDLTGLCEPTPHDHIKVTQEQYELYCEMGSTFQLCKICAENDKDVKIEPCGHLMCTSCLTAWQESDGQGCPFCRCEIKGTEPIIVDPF
How it was run: (§2)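 SPR, multi-cycle, 6-pt 2-fold series, blanks flanking for double referencing; capture 1300-1500 RU; contact 60 s at 40 μl/min; dissoc. 120-1200 s (~4-5 half-lives). 1:1 fit. Chaser variant: single cycle, 5 conc., top 500 nM, 120 s contact, 450 s dissociation.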

c-Cbl (residues 47-435) = c-Cbl (residues 47-435) (Homo sapiens (Human), UniProt P22681); assay: c-Cbl SPR assay; type: binding; conditions: 20° C.
c-Cbl (residues 47-435), sequence (P22681 47-435): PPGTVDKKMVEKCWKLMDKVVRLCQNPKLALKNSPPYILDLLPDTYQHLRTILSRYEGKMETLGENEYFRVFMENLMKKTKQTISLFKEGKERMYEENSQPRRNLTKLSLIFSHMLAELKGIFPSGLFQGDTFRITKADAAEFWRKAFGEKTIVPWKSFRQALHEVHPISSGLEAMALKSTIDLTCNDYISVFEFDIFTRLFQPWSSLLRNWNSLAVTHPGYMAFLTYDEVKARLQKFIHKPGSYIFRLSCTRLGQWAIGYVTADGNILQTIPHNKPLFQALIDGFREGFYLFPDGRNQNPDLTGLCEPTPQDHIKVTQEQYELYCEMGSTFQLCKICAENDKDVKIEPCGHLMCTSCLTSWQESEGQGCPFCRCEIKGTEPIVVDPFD
How it was run: as §2

Cbl-b = Cbl-b (Homo sapiens (Human), UniProt Q13191); assay: Cbl-b LCK Ub TR-FRET assay (Cbl-b Lck HTRF); type: biochemical; conditions: for IC50: Cbl-b LCK Ub TR-FRET; for fold-selectivity (Cbl-b over C-cbl): ratio C-cbl Lck HTRF IC50 / Cbl-b Lck HTRF IC50
Cbl-b, sequence (Q13191 40-426): as the sequence (Q13191 40-426) above
How it was run: as §1

c-Cbl, sequence (P22681 47-435): as the sequence (P22681 47-435) above

SMILES	IC50 (c-Cbl) [nM]	Fold of selectivity [1] [×]	Kd [1] [nM]	Kd (c-Cbl (residues 47-435)) [nM]	IC50 (Cbl-b) [nM]	fold-selectivity (Cbl-b over C-cbl) (Cbl-b) [x]
Cn1cnnc1[C@]1(c2cccc(N3Cc4c(cc(CNC5(C)CCC5)cc4C(F)(F)F)C3=O)c2)C[C@@](O)(C(F)(F)F)C1 [Compound 120, 2-(3-((1s,3s)-3-hydroxy-1-(4-methyl-4H-1,2,4-triazol-3-yl)-3-(trifluoromethyl)cyclobutyl)phenyl)-6-(((1-methylcyclobutyl)amino)methyl)-4-(trifluoromethyl)isoindolin-1-one]	1800	6.8	180	1400	360	4.8
C[C@H]1C[C@@](c2cccc(N3Cc4c(cc(CNC5(C)CCC5)cc4C(F)(F)F)C3=O)c2)(c2nncn2C)O1 [Compound 123, 2-(3-((2R,4S)-4-methyl-2-(4-methyl-4H-1,2,4-triazol-3-yl)oxetan-2-yl)phenyl)-6-(((1-methylcyclobutyl)amino)methyl)-4-(trifluoromethyl)isoindolin-1-one]	230	6.1	21	130	68	3.4
C[C@H]1C[C@](c2cccc(N3Cc4c(cc(CNC5(C)CCC5)cc4C(F)(F)F)C3=O)c2)(c2nncn2C)O1 [Compound 125, 2-(3-((2S,4S)-4-methyl-2-(4-methyl-4H-1,2,4-triazol-3-yl)oxetan-2-yl)phenyl)-6-(((1-methylcyclobutyl)amino)methyl)-4-(trifluoromethyl)isoindolin-1-one]	2300	11	130	1500	410	5.7
C[C@@H]1C[C@](c2cccc(N3Cc4c(cc(CNC5(C)CCC5)cc4C(F)(F)F)C3=O)c2)(c2nncn2C)O1 [Compound 126, 2-(3-((2S,4R)-4-methyl-2-(4-methyl-4H-1,2,4-triazol-3-yl)oxetan-2-yl)phenyl)-6-(((1-methylcyclobutyl)amino)methyl)-4-(trifluoromethyl)isoindolin-1-one]	250	6.0	12	130	75	3.4
Cn1cnnc1[C@H](c1cccc(N2Cc3c(cc(CNC4(C)CCC4)cc3C(F)(F)F)C2=O)c1)[C@H]1CCOC1 [Compound 169, 2-(3-((S)-(4-methyl-4H-1,2,4-triazol-3-yl)((R)-tetrahydrofuran-3-yl)methyl)phenyl)-6-(((1-methylcyclobutyl)amino)methyl)-4-(trifluoromethyl)isoindolin-1-one]	340	2.7	66	180	72	4.8
Cn1cnnc1[C@]1(c2cc(NC3CCCC3)cc(N3Cc4c(cc(CNC5(C)CCC5)cc4C(F)(F)F)C3=O)c2)C[C@H](C)C1 [Compound 177, 2-(3-(cyclopentylamino)-5-((1s,3s)-3-methyl-1-(4-methyl-4H-1,2,4-triazol-3-yl)cyclobutyl)phenyl)-6-(((1-methylcyclobutyl)amino)methyl)-4-(trifluoromethyl)isoindolin-1-one]	180	10	9.9	99	59	2.8
CCO[C@H]1C[C@](c2cccc(N3Cc4c(cc(CNC5(C)CCC5)cc4C(F)(F)F)C3=O)c2)(c2nncn2C)C1 [Compound 179, 2-(3-((1r,3r)-3-ethoxy-1-(4-methyl-4H-1,2,4-triazol-3-yl)cyclobutyl)phenyl)-6-(((1-methylcyclobutyl)amino)methyl)-4-(trifluoromethyl)isoindolin-1-one]	110	13	4.6	58	30	3.4
Cn1cnnc1[C@]1(c2cc(OC3CCCC3)cc(N3Cc4c(cc(CNC5(C)CCC5)cc4C(F)(F)F)C3=O)c2)C[C@H](C)C1 [Compound 186, 2-(3-(cyclopentyloxy)-5-((1s,3s)-3-methyl-1-(4-methyl-4H-1,2,4-triazol-3-yl)cyclobutyl)phenyl)-6-(((1-methylcyclobutyl)amino)methyl)-4-(trifluoromethyl)isoindolin-1-one]	100	5.2	13	72	35	2.9

The remaining lines, values ahead:

IC50 (c-Cbl) [nM]	Fold of selectivity [1] [×]	Kd [1] [nM]	Kd (c-Cbl (residues 47-435)) [nM]	IC50 (Cbl-b) [nM]	fold-selectivity (Cbl-b over C-cbl) (Cbl-b) [x]	SMILES
100	3.9	17	67	56	1.9	C[C@@H]1C[C@@](c2cccc(N3Cc4c(cc(CNC5(C)CCC5)cc4C(F)(F)F)C3=O)c2)(c2nncn2C)O1 [Compound 124, 2-(3-((2R,4R)-4-methyl-2-(4-methyl-4H-1,2,4-triazol-3-yl)oxetan-2-yl)phenyl)-6-(((1-methylcyclobutyl)amino)methyl)-4-(trifluoromethyl)isoindolin-1-one]
8.5	8.4	0.27	2.1	6.1	1.4	Cl.Cn1cnnc1[C@]1(c2cccc(N3Cc4c(cc(CNC5(C)CCC5)cc4C(F)(F)F)C3=O)c2)C[C@@H](Cl)C1 [Compound 137, 2-(3-((1r,3r)-3-chloro-1-(4-methyl-4H-1,2,4-triazol-3-yl)cyclobutyl)phenyl)-6-(((1-methylcyclobutyl)amino)methyl)-4-(trifluoromethyl)isoindolin-1-one hydrochloride]
4.2	5.6	0.75	4.2	4.1	1.0	Cn1cnnc1[C@]1(c2cccc(N3Cc4c(cc(CNC5(C)CCC5)cc4C(F)(F)F)C3=O)c2)C[C@H](Cl)C1 [Compound 138, 2-(3-((1s,3s)-3-chloro-1-(4-methyl-4H-1,2,4-triazol-3-yl)cyclobutyl)phenyl)-6-(((1-methylcyclobutyl)amino)methyl)-4-(trifluoromethyl)isoindolin-1-one]
85	4.6	5.8	30	33	2.5	CCO[C@H]1C[C@@](c2cccc(N3Cc4c(cc(CNC5(C)CCC5)cc4C(F)(F)F)C3=O)c2)(c2nncn2C)C1 [Compound 178, 2-(3-((1s,3s)-3-ethoxy-1-(4-methyl-4H-1,2,4-triazol-3-yl)cyclobutyl)phenyl)-6-(((1-methylcyclobutyl)amino)methyl)-4-(trifluoromethyl)isoindolin-1-one]
74	10.2	3.5	36	18	3.7	CO[C@H]1C[C@](c2cccc(N3Cc4c(cc(CN5CCN(C)C[C@@H]5C(C)C)cc4C(F)(F)F)C3=O)c2)(c2nncn2C)C1 [Compound 180, 6-(((S)-2-isopropyl-4-methylpiperazin-1-yl)methyl)-2-(3-((1r,3S)-3-methoxy-1-(4-methyl-4H-1,2,4-triazol-3-yl)cyclobutyl)phenyl)-4-(trifluoromethyl)isoindolin-1-one]
8.3	2.0	0.37	0.74	9.8	0.85	CCOc1cc(N2Cc3c(cc(CNC4(C)CCC4)cc3C(F)(F)F)C2=O)cc([C@]2(c3nncn3C)C[C@@H](C)C2)c1 [Compound 181, 2-(3-ethoxy-5-((1s,3s)-3-methyl-1-(4-methyl-4H-1,2,4-triazol-3-yl)cyclobutyl)phenyl)-6-(((1-methylcyclobutyl)amino)methyl)-4-(trifluoromethyl)isoindolin-1-one]
11	2.7	0.35	0.85	11	1.0	CCOc1cc(C2(c3nncn3C)CC(F)(F)C2)cc(N2Cc3c(cc(CNC4(C)CCC4)cc3C(F)(F)F)C2=O)n1 [Compound 182, 2-(4-(3,3-difluoro-1-(4-methyl-4H-1,2,4-triazol-3-yl)cyclobutyl)-6-ethoxypyridin-2-yl)-6-(((1-methylcyclobutyl)amino)methyl)-4-(trifluoromethyl)isoindolin-1-one]
58	5.8	3.2	18	18	3.4	Cn1cnnc1[C@]1(c2cc(NC3CCCC3)cc(N3Cc4c(cc(CNC5(C)CCC5)cc4C(F)(F)F)C3=O)c2)C[C@@H](C)C1 [Compound 183, 2-(3-(cyclopentylamino)-5-((1r,3r)-3-methyl-1-(4-methyl-4H-1,2,4-triazol-3-yl)cyclobutyl)phenyl)-6-(((1-methylcyclobutyl)amino)methyl)-4-(trifluoromethyl)isoindolin-1-one]
22	15	0.95	15	11	1.0	Cn1cnnc1C1(c2cc(NCCC#N)nc(N3Cc4c(cc(CNC5(C)CCC5)cc4C(F)(F)F)C3=O)c2)CC2(COC2)C1 [Compound 187, 3-((4-(6-(4-methyl-4H-1,2,4-triazol-3-yl)-2-oxaspiro[3.3]heptan-6-yl)-6-(6-(((1-methylcyclobutyl)amino)methyl)-1-oxo-4-(trifluoromethyl)isoindolin-2-yl)pyridin-2-yl)amino)propanenitrile]
